Legend:
red blood cells = experiment: Hemolysis assay on mouse red blood cells; assay type: cell-based, BALB/c mouse; conditions: mouse red blood cells in PBS, peptides 1-40 μM, 4 h at 37 °C, OD 450 nm of supernatant, 2% Triton X-100 positive control, mean of n = 3
Protocol: Melittin has been well-documented to have strong hemolytic effects. To diminish such adverse effects, several truncated melittin were synthesized and analyzed in vitro (Figure 2A). Mouse blood cells were treated with varying concentrations of peptides for 4 h, and the optical density was measured using a microplate reader.
Figure 2 Melittin fragments have fewer hemolytic effects than melittin. (A) Amino acid sequence of melittin and melittin-truncated peptide. (B) Hemolysis of red blood cells treated with FITC-conjugated melittin or FITC-conjugated melittin fragments at concentrations ranging from 1 μM to 40 μM and incubated at 37 °C for 4 h. […] The optical density of hemoglobin released supernatant was measured at 450 nm. […]
Figure 4 Characterization of the optimized hybrid peptide drug, PEG-melittin-dKLA 8-26. […] The optical density was measured at 490 nm. […] The optical density of hemoglobin released in the supernatant was measured at 450 nm. […]
Blood was collected from each BALB/c mouse. […] The optical density of the samples was measured at 450 nm using a microplate reader (Molecular Devices). The percentage of hemolysis was calculated using the following equation: hemolysis (%) = (OD450 nm sample − OD450 nm negative control)/(OD450 nm positive control − OD450 nm negative control) × 100%. All data are expressed as the mean ± SEM of three independent experiments.

[1] = test system: THP-1-derived M2 macrophages; experiment: Flow cytometry binding of FITC-conjugated peptides to M2 macrophages; assay type: cell-based, human; conditions: 100 nM FITC-conjugated peptides, 1 h, percentage of FITC-positive cells, n = 3
Protocol: To address the binding ability of truncated melittin peptides to M2 macrophages, fluorescein isothiocyanate (FITC)-conjugated peptides were synthesized and incubated with M2 macrophages, and the percentage of FITC-positive cells was measured using flow cytometry. […] Next, to confirm and compare the binding capabilities of melittin and melittin 8-26 to different macrophage lineages, including M0, M1, and M2, FITC-conjugated peptides were tested on each macrophage phenotype, and their binding capabilities were measured by flow cytometry. […]
Figure 3 Binding of melittin fragments to the THP-1-derived M2 macrophages. […] (A) Melittin or melittin fragment affinity for M2 macrophages was measured using flow cytometry. […] (B) The affinity of melittin or melittin 8-26 for macrophages was detected by flow cytometry. TEXT PRINTED IN THE PICTURE: (B) Melittin: M0: 21.78; M1: 17.22; M2: 46.02 | (B) Melittin 8-26: M0: 26.8; M1: 14.74; M2: 34.66 DOUBTS OF THE COPYIST ABOUT THIS PICTURE: Panel B: the tiny quadrant labels (UL 0.00, UR 0.00, and LL values such as about 78.22, 53.98, 73.20, 85.26, 65.34) are too small, blurred or partly hidden by the dots to read with certainty, so they are left out. / Panel B: no measure or unit is printed with the large quadrant numbers. […]

## melittin
Red blood cells
  concentration at which hemolysis was observed: above 5 μM
[1]
  binding affinity to M2 macrophages (in words): highest binding affinity

From PMC9779714, “Enhanced Therapeutic Effect of Optimized Melittin-dKLA, a Peptide Agent Targeting M2-like Tumor-Associated Macrophages in Triple-Negative Breast Cancer” (International Journal of Molecular Sciences, 2022)
